Test results reported in US8143255B2, “Heteroalkyl linked pyrimidine derivatives” (S*BIO Pte Ltd., priority 2005, dated 2012).

Legend:
CDK2/CyclinA = target: T1, CDK2/CyclinA (Homo sapiens, UniProt P24941); assay: In vitro kinase activity assay (PKLight), CDK2/Cyclin A; assay type: biochemical; details: recombinant CDK2/Cyclin A, RbING substrate, 0.5 μM ATP, 2 hr
T1 construct: purchased Invitrogen PV3267
Method: (§1) All assays were carried out in 384-well white microtiter plates using the PKLight assay system from Cambrex (East rutherford, N.J.). This assay platform is essentially a luminometdc assay for the detection of ATP in the reaction using a luciferase-coupled reaction. For CDK2/Cyclin A assay, the reaction mixture consisted of the following components in 25 μL assay buffer (50 mM Hepes pH 7.5, 10 mM MgCl2, 5 mM MnCl2, 5 mM BGP, 1 mM DTT, 0.1 mM sodium orthovanadate), 1.4 μg/mL of CDK2/Cyclin A complex, 0.5 μM of RbING substrate (Invitrogen, Cat # PV2939) and 0.5 μM of ATP. The compounds were tested at 8 concentrations prepared from 4-fold serial dilution starting at 10 μM. The reaction was incubated at room temperature for 2 hr. 13 μL of PKLight ATP detection reagent was added and the reaction was incubated for 10 min. Luminescence signals were detected on a multi-label plate reader (Victor^2 V 1420, Perkin-Elmer). The other kinase assays were identical except for the following differences in reagents. For FLT3 assays, the reaction contained 2.0 μg/mL FLT3 enzyme, 5 μM of poly(Glu,Tyr) substrate (Sigma, Cat # P0275) and 4 μM of ATP. For JAK2 assays, the reaction contained 0.6 μg/mL of JAK2 enzyme, 2 μM of poly(Glu,Ala,Tyr) substrate (Sigma, Cat # P3899) and 0.2 μM of ATP. […] The analytical software, Prism 4.0 (GraphPad Software Pte Ltd) was used to generate IC50 values from the data.

FLT3 = target: T2, FLT3 (Homo sapiens, UniProt P36888); assay: In vitro kinase activity assay (PKLight), FLT3; assay type: biochemical; details: recombinant FLT3, poly(Glu,Tyr) substrate, 4 μM ATP
T2 construct: purchased Invitrogen PV3182
T2 sequence (P36888 27-993): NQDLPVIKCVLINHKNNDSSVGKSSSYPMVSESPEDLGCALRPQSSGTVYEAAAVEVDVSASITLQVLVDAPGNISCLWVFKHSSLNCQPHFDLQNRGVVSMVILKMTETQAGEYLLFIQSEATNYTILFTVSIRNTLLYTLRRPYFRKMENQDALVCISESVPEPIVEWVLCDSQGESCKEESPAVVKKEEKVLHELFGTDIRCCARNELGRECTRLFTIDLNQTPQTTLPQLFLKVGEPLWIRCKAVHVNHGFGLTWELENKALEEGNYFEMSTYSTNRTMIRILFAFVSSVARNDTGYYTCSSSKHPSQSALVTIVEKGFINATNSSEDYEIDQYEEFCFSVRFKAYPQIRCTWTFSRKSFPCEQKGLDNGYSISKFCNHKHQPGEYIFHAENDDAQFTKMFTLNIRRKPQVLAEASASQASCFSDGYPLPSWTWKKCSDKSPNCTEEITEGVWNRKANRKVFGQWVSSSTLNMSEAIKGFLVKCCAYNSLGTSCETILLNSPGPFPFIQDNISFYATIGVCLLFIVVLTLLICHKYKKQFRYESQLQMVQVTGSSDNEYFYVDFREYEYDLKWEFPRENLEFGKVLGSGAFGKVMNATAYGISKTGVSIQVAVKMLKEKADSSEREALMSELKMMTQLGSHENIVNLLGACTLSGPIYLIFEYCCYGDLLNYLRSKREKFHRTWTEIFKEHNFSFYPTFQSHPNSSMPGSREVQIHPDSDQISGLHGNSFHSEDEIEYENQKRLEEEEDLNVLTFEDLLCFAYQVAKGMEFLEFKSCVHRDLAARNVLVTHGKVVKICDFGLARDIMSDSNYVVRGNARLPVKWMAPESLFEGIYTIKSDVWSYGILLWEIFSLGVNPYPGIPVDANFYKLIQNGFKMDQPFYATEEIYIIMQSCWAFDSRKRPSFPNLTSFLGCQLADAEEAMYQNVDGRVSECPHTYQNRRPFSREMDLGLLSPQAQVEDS
Method: The recombinant enzymes (CDK2/CyclinA, FLT3, JAK2 and JAK2 V617F) were purchased from Invitrogen (Cat # PV3267, 3182, 4210 and 4347 respectively). All assays were carried out in 384-well white microtiter plates using the PKLight assay system from Cambrex (East rutherford, N.J.). This assay platform is essentially a luminometdc assay for the detection of ATP in the reaction using a luciferase-coupled reaction. For CDK2/Cyclin A assay, the reaction mixture consisted of the following components in 25 μL assay buffer (50 mM Hepes pH 7.5, 10 mM MgCl2, 5 mM MnCl2, 5 mM BGP, 1 mM DTT, 0.1 mM sodium orthovanadate), 1.4 μg/mL of CDK2/Cyclin A complex, 0.5 μM of RbING substrate (Invitrogen, Cat # PV2939) and 0.5 μM of ATP. The compounds were tested at 8 concentrations prepared from 4-fold serial dilution starting at 10 μM. The reaction was incubated at room temperature for 2 hr. 13 μL of PKLight ATP detection reagent was added and the reaction was incubated for 10 min. Luminescence signals were detected on a multi-label plate reader (Victor^2 V 1420, Perkin-Elmer). The other kinase assays were identical except for the following differences in reagents. For FLT3 assays, the reaction contained 2.0 μg/mL FLT3 enzyme, 5 μM of poly(Glu,Tyr) substrate (Sigma, Cat # P0275) and 4 μM of ATP. For JAK2 assays, the reaction contained 0.6 μg/mL of JAK2 enzyme, 2 μM of poly(Glu,Ala,Tyr) substrate (Sigma, Cat # P3899) and 0.2 μM of ATP. For JAK2 V617F mutant assays, the reaction contained 8.0 μg/mL of JAK2 mutant enzyme, 2 μM of poly(Glu,Ala,Tyr) substrate (Sigma, Cat # P3899) and 0.2 μM of ATP. The analytical software, Prism 4.0 (GraphPad Software Pte Ltd) was used to generate IC50 values from the data. […] IC50 values are shown below in Table 3.

JAK2 = target: T3, JAK2 (Homo sapiens, UniProt O60674); assay: In vitro kinase activity assay (PKLight), JAK2; assay type: biochemical; details: recombinant JAK2, poly(Glu,Ala,Tyr) substrate, 0.2 μM ATP
T3 construct: purchased Invitrogen PV4210
T3 sequence (O60674 whole entry): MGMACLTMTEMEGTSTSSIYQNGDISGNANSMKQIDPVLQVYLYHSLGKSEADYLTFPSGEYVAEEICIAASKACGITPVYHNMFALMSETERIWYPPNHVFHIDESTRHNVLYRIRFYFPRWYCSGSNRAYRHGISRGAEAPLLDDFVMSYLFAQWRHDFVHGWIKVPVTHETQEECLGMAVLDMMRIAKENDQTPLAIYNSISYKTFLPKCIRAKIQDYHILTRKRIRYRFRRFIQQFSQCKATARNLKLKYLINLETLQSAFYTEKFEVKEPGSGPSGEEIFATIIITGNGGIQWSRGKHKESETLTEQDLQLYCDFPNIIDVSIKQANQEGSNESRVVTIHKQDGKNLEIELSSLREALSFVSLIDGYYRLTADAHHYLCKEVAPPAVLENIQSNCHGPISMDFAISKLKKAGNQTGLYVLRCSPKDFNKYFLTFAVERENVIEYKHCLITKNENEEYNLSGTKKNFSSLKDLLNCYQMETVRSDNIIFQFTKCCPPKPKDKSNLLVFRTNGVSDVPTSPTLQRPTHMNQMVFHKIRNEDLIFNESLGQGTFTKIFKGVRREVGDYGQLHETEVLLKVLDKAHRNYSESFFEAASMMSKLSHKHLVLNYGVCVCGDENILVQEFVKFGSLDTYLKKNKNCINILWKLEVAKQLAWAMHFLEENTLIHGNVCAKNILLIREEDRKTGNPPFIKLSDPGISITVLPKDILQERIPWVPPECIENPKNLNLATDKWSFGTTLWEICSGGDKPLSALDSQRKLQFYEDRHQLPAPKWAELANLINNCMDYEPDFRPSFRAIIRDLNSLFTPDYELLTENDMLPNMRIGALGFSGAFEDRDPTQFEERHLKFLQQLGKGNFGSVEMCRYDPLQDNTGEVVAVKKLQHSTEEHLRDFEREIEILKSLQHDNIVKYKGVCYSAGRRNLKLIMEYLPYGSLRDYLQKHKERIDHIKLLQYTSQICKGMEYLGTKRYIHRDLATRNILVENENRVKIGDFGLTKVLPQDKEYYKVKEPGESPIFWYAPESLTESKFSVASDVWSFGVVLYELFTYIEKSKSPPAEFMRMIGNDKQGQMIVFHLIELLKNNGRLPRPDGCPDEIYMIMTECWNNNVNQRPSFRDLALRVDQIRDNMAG
Method: as §1

JAK2 V617F = target: T4, JAK2 V617F (Homo sapiens, UniProt O60674, V617F); assay: In vitro kinase activity assay (PKLight), JAK2 V617F mutant; assay type: biochemical; details: recombinant JAK2 V617F mutant, poly(Glu,Ala,Tyr) substrate, 0.2 μM ATP
T4 construct: purchased Invitrogen PV4347
T4 sequence (O60674 whole entry V617F): as the sequence (O60674 whole entry) above, with V617F counted along it
Method: as §1

[1] = system: HL60 (acute myeloid leukemia cell line); assay: Cell-based proliferation assay, HL60; details: Homo sapiens, HL-60; HL60 cells, 96 h treatment
Method: (§2) Human cancer cell lines HL60 (acute myeloid leukemia cell line), Colo205 (colon adenocarcinoma cell line), HEL92.1.7 (erythroleukemia cell line), MV4-11 (acute myeloid leukemia cell line) and DU145 (metastatic prostate cancer cell line) were obtained from ATCC. They were cultivated in the media according to the ATCC work instructions. Colo205 and DU145 cells were seeded in 96-wells plate 5000 cells per cell and 1000 cells per well respectively. HEL92.1.7 and MV4-11 cells were seeded at 6000 cells per well while HL60 cells were seeded at 8000 cells per well in 96 well plate. The plates were incubated at 37° C., 5% CO2, for 24 h. Cells were treated with compounds at various concentrations for 96 h. Cell growth was then monitored using Celltiter96 Aqueous One Solution Cell Proliferation Assay from Promega (Madison Wis.). Dose response curves were plotted to determine GI50 values for the compounds using XL-fit (ID Business Solution, Emeryville, Calif.).

[2] = system: Colo205 (colon adenocarcinoma cell line); assay: Cell-based proliferation assay, Colo205; details: Homo sapiens, COLO 205; Colo205 cells, 96 h treatment
Method: as §2

[3] = system: HEL92.1.7 (erythroleukemia cell line); assay: Cell-based proliferation assay, HEL92.1.7; details: Homo sapiens, HEL 92.1.7; HEL92.1.7 cells, 96 h treatment
Method: as §2

[4] = system: MV4-11 (acute myeloid leukemia cell line); assay: Cell-based proliferation assay, MV4-11; details: Homo sapiens; MV4-11 cells, 96 h treatment
Method: as §2

[5] = system: DU145 (metastatic prostate cancer cell line); assay: Cell-based proliferation assay, DU145; details: Homo sapiens, DU-145; DU145 cells, 96 h treatment
Method: as §2

| SMILES | IC50 (CDK2/CyclinA) [µM] | IC50 (FLT3) [µM] | IC50 (JAK2) [µM] | IC50 (JAK2 V617F) [µM] | GI50 [1] [µM] | GI50 [2] [µM] | GI50 [3] [µM] | GI50 [4] [µM] | GI50 [5] [µM] |
| --- | --- | --- | --- | --- | --- | --- | --- | --- | --- |
| O=C1NC/C=C/COCc2cccc(c2)Nc2nccc(n2)-c2cccc1c2 [Compound 17] | > 5 | 1 to 5 | ≤ 1 | ≤ 1 | > 5 | > 5 | > 5 | > 5 | > 5 |
| CCN(CC)CCOc1ccc2cc1CN(C)C/C=C/CCOc1cccc(c1)-c1ccnc(n1)N2 [Compound 32] | ≤ 1 | ≤ 1 | ≤ 1 | ≤ 1 | ≤ 1 | ≤ 1 | ≤ 1 | ≤ 1 | ≤ 1 |
| CN1C/C=C/CCOc2cccc(c2)-c2ccnc(n2)Nc2cccc(c2)C1 [Compound 1] |  | ≤ 1 | ≤ 1 | ≤ 1 | ≤ 1 | ≤ 1 | ≤ 1 | ≤ 1 | ≤ 1 |

Results, then the compound that gave them:

| IC50 (CDK2/CyclinA) [µM] | IC50 (FLT3) [µM] | IC50 (JAK2) [µM] | IC50 (JAK2 V617F) [µM] | GI50 [1] [µM] | GI50 [2] [µM] | GI50 [3] [µM] | GI50 [4] [µM] | GI50 [5] [µM] | SMILES |
| --- | --- | --- | --- | --- | --- | --- | --- | --- | --- |
| ≤ 1 | ≤ 1 | ≤ 1 | ≤ 1 | ≤ 1 | ≤ 1 | ≤ 1 | ≤ 1 | ≤ 1 | CN1C/C=C/CCOc2cccc(c2)-c2ccnc(n2)Nc2ccc(OCCN3CCCC3)c(c2)C1 [Compound 40] |
| ≤ 1 | ≤ 1 | ≤ 1 | ≤ 1 | ≤ 1 | 1 to 5 | 1 to 5 | ≤ 1 | > 5 | C1=C/CN(C2CC2)Cc2cc(ccc2OCCN2CCOCC2)Nc2nccc(n2)-c2cccc(c2)OCC/1 [Compound 36] |
| ≤ 1 | ≤ 1 | ≤ 1 | ≤ 1 | ≤ 1 | ≤ 1 | ≤ 1 | ≤ 1 | ≤ 1 | CN1C/C=C/CCOc2cc(F)cc(c2)-c2ccnc(n2)Nc2ccc(OCCN3CCCC3)c(c2)C1 [Compound 52] |
